Data as given in PubChem BioAssay AID256 (DTP/NCI, 2004).
Toxic doses and inconclusive results are not listed. Rule for the calls: active = survival T/C of 150% or more; inactive = T/C below 125% in these data.

Test system: CD2F1 mice, L1210 leukemia ip, survival T/C
Test: NCI In Vivo Anticancer Drug Screen. Data for tumor model L1210 Leukemia (intraperitoneal) in CD2F1 (CDF1) mice
Conditions: endpoint: mean survival time, higher = longer survival
How it was run: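 Mice carrying a transplanted tumor received test compound or vehicle alone. The value is the measurement in the treated group divided by that in the vehicle-treated control group.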

[1] = dose: 12.5 mg/kg/injection, schedule: Q04DX003 (ip), vehicle: saline
[2] = dose: 50.0 mg/kg/injection, schedule: Q01DX001 (ip), vehicle: saline
[3] = dose: 100.0 mg/kg/injection, schedule: Q04DX003 (ip), vehicle: saline with Tween-80
[4] = dose: 200.0 mg/kg/injection, schedule: Q04DX003 (ip), vehicle: saline with Tween-80
[5] = dose: 400.0 mg/kg/injection, schedule: Q04DX003 (ip), vehicle: saline with Tween-80
[6] = dose: 100.0 mg/kg/injection, schedule: Q01DX009 (ip), vehicle: saline with Tween-80

Measured: T/C

c1ccc(C[N+]23CCC(CC2)CC3)cc1
inactive: dose: 6.25 mg/kg/injection, schedule: Q04DX003 (ip), vehicle: saline 104 % of control | [1] 103 % of control

CCCC[As](=O)(O)C(C)C
inactive: dose: 2.7 mg/kg/injection, schedule: Q01DX009 (ip), vehicle: saline 93 % of control | dose: 4.1 mg/kg/injection, schedule: Q01DX009 (ip), vehicle: saline 102 % of control | dose: 5.5 mg/kg/injection, schedule: Q04DX003 (ip), vehicle: saline 100 % of control | dose: 6.25 mg/kg/injection, schedule: Q01DX009 (ip), vehicle: saline 104 % of control | dose: 8.2 mg/kg/injection, schedule: Q04DX003 (ip), vehicle: saline 104 % of control | dose: 9.3 mg/kg/injection, schedule: Q01DX009 (ip), vehicle: saline 100 % of control | dose: 11.0 mg/kg/injection, schedule: Q04DX002 (ip), vehicle: saline 106 % of control | [1] 104 % of control | dose: 14.0 mg/kg/injection, schedule: Q01DX009 (ip), vehicle: saline 93 % of control | dose: 16.0 mg/kg/injection, schedule: Q04DX002 (ip), vehicle: saline 113 % of control | dose: 18.0 mg/kg/injection, schedule: Q04DX003 (ip), vehicle: saline 100 % of control | dose: 22.0 mg/kg/injection, schedule: Q01DX001 (ip), vehicle: saline 104 % of control | dose: 25.0 mg/kg/injection, schedule: Q04DX002 (ip), vehicle: saline 100 % of control | dose: 28.0 mg/kg/injection, schedule: Q04DX003 (ip), vehicle: saline 102 % of control | dose: 35.0 mg/kg/injection, schedule: Q01DX001 (ip), vehicle: saline 102 % of control | dose: 35.0 mg/kg/injection, schedule: Q04DX002 (ip), vehicle: saline 111 % of control | [2] 104 % of control | dose: 55.0 mg/kg/injection, schedule: Q04DX002 (ip), vehicle: saline 95 % of control | dose: 75.0 mg/kg/injection, schedule: Q01DX001 (ip), vehicle: saline 111 % of control

CN1C(CC(O)(c2ccccc2)c2ccccc2)CCCC1CC(O)(c1ccccc1)c1ccccc1 (configuration not stated)
inactive: dose: 100.0 mg/kg/injection, schedule: Q01DX001 (ip), vehicle: saline with Tween-80 91 % of control | dose: 200.0 mg/kg/injection, schedule: Q01DX001 (ip), vehicle: saline with Tween-80 96 % of control | dose: 400.0 mg/kg/injection, schedule: Q01DX001 (ip), vehicle: saline with Tween-80 91 % of control

CC1(C)OC2C3COP(=O)(N(CCCl)CCCl)NC(O3)C2O1 (configuration not stated)
inactive: dose: 3.9 mg/kg/injection, schedule: Q01DX001 (ip), vehicle: distilled water + Tween-80 98 % of control | dose: 3.9 mg/kg/injection, schedule: Q01DX001 (ip), vehicle: distilled water + alcohol 103 % of control | dose: 7.8 mg/kg/injection, schedule: Q01DX001 (ip), vehicle: distilled water + Tween-80 98 % of control | dose: 7.8 mg/kg/injection, schedule: Q01DX001 (ip), vehicle: distilled water + alcohol 108 % of control | dose: 15.6 mg/kg/injection, schedule: Q01DX001 (ip), vehicle: distilled water + alcohol 98 % of control | dose: 31.2 mg/kg/injection, schedule: Q01DX001 (ip), vehicle: distilled water + Tween-80 98 % of control | dose: 31.2 mg/kg/injection, schedule: Q01DX001 (ip), vehicle: distilled water + alcohol 103 % of control | dose: 31.3 mg/kg/injection, schedule: Q01DX001 (ip), vehicle: distilled water + Tween-80 98 % of control | dose: 62.5 mg/kg/injection, schedule: Q01DX001 (ip), vehicle: distilled water + Tween-80 98 % of control | dose: 125.0 mg/kg/injection, schedule: Q01DX001 (ip), vehicle: distilled water + Tween-80 96 % of control | dose: 250.0 mg/kg/injection, schedule: Q01DX001 (ip), vehicle: distilled water + Tween-80 96 % of control | dose: 500.0 mg/kg/injection, schedule: Q01DX001 (ip), vehicle: distilled water + Tween-80 97 % of control

C=C(Cl)C(C)(C)C
inactive: dose: 25.0 mg/kg/injection, schedule: Q01DX001 (ip), vehicle: saline 98 % of control | [2] 104 % of control | dose: 100.0 mg/kg/injection, schedule: Q01DX001 (ip), vehicle: saline 100 % of control

CCC(CC)n1c(C)cc(=O)n1C(CC)CC
inactive: dose: 5.0 mg/kg/injection, schedule: Q01DX001 (ip), vehicle: saline 97 % of control | dose: 10.0 mg/kg/injection, schedule: Q01DX001 (ip), vehicle: saline 97 % of control | dose: 20.0 mg/kg/injection, schedule: Q01DX001 (ip), vehicle: saline 95 % of control

CCCCC(CSC#N)SC#N (configuration not stated)
inactive: dose: 6.25 mg/kg/injection, schedule: Q04DX002 (ip), vehicle: saline with Tween-80 92 % of control | dose: 12.5 mg/kg/injection, schedule: Q04DX002 (ip), vehicle: saline with Tween-80 88 % of control

O=C(c1ccccc1)C1(c2ccccc2)CC1
inactive: [3] 108 % of control | [4] 101 % of control | [5] 101 % of control

CC(=O)Nc1cc(N(CCOS(C)(=O)=O)CCOS(C)(=O)=O)ccc1N=O
inactive: dose: 0.25 mg/kg/injection, schedule: Q01DX009 (ip), vehicle: saline 117 % of control | dose: 0.5 mg/kg/injection, schedule: Q01DX009 (ip), vehicle: saline 116 % of control | dose: 1.0 mg/kg/injection, schedule: Q01DX009 (ip), vehicle: saline 95 % of control | dose: 1.5 mg/kg/injection, schedule: Q04DX003 (ip), vehicle: saline 120 % of control | dose: 2.0 mg/kg/injection, schedule: Q01DX009 (ip), vehicle: saline 95 % of control | dose: 3.0 mg/kg/injection, schedule: Q04DX003 (ip), vehicle: saline 115 % of control | dose: 6.0 mg/kg/injection, schedule: Q04DX003 (ip), vehicle: saline 107 % of control

CCOC(=O)N(OCc1ccccc1)P(=O)(N1CC1(C)C)N1CC1(C)C (configuration not stated)
inactive: dose: 25.0 mg/kg/injection, schedule: Q01DX009 (ip), vehicle: saline with Tween-80 95 % of control | dose: 50.0 mg/kg/injection, schedule: Q01DX009 (ip), vehicle: saline with Tween-80 93 % of control | [6] 98 % of control

CC(=O)OCC1OC(n2cnc3c(=S)nc(N)[nH]c32)C(OC(C)=O)C1OC(C)=O (configuration not stated)
inactive: dose: 100.0 mg/kg/injection, schedule: Q01DX005 (ip), vehicle: saline 112 % of control | dose: 200.0 mg/kg/injection, schedule: Q01DX005 (ip), vehicle: saline 123 % of control

CCOC(=O)N1CCN(N=Nc2c(C(=O)OC)n[nH]c2C)CC1
inactive: dose: 75.0 mg/kg/injection, schedule: Q01DX001 (ip), vehicle: other 103 % of control | dose: 150.0 mg/kg/injection, schedule: Q01DX001 (ip), vehicle: other 105 % of control | dose: 300.0 mg/kg/injection, schedule: Q01DX001 (ip), vehicle: other 105 % of control

OCC1OC(n2ncc3c(NCc4ccco4)ncnc32)C(O)C1O (configuration not stated)
inactive: dose: 25.0 mg/kg/injection, schedule: Q01DX009 (ip), vehicle: water 95 % of control | dose: 50.0 mg/kg/injection, schedule: Q01DX009 (ip), vehicle: water 95 % of control | dose: 100.0 mg/kg/injection, schedule: Q01DX009 (ip), vehicle: water 100 % of control | dose: 200.0 mg/kg/injection, schedule: Q01DX009 (ip), vehicle: water 104 % of control | dose: 400.0 mg/kg/injection, schedule: Q01DX009 (ip), vehicle: water 106 % of control

CC(NC(=O)CNC(=O)CNC(=O)OCc1ccccc1)C(=O)OCc1ccccc1 (configuration not stated)
inactive: [3] 97 % of control | [4] 99 % of control | [5] 101 % of control

CCN1CCC(C(C)(C)C)CC1
inactive: dose: 100.0 mg/kg/injection, schedule: Q01DX001 (ip), vehicle: acetone 102 % of control

CC1CC(C)(C)OC(C(C)C)O1 (configuration not stated)
inactive: dose: 100.0 mg/kg/injection, schedule: Q04DX002 (ip), vehicle: saline with Tween-80 96 % of control | dose: 200.0 mg/kg/injection, schedule: Q04DX002 (ip), vehicle: saline with Tween-80 96 % of control | dose: 400.0 mg/kg/injection, schedule: Q04DX002 (ip), vehicle: saline with Tween-80 96 % of control

COc1cc(-c2ccc3cc(OC)c(OC)c(OC)c3c2)cc(OC)c1OC
inactive: [6] 96 % of control | dose: 200.0 mg/kg/injection, schedule: Q01DX009 (ip), vehicle: saline with Tween-80 98 % of control | dose: 400.0 mg/kg/injection, schedule: Q01DX009 (ip), vehicle: saline with Tween-80 96 % of control
